From ChEMBL document CHEMBL3102715, “Synthesis and anti-rhinovirus activity of novel 3-[2-(pyridinyl)vinyl]substituted -2H-chromenes and -4H-chromen-4-ones” (Bioorg Med Chem, 2014)
The source made the active and inactive calls. The rule behind the calls is not given here.

Tests used:
[1] = test system: rhinovirus B14; test: Antiviral activity against HRV 14 infected in human HeLa cells assessed as reduction in plaque number after 3 days by neutral red assay; assay type: functional, organism-based; conditions: Rhinovirus B, 72 h
[2] = Cytotoxicity against human HeLa cells assessed as reduction in cell viability after 3 days by XTT assay; assay type: cell-based; conditions: for MNTC at 72 h: read-out: MNCC
[3] = Selectivity index, ratio of CC50 for human HeLa cells to IC50 for HRV 14 infected in human HeLa cells; assay type: functional
[4] = test system: rhinovirus A1B; test: Antiviral activity against HRV 1B infected in human HeLa cells assessed as reduction in plaque number after 3 days by neutral red assay; assay type: functional, organism-based, Human rhinovirus 1B; conditions: Rhinovirus A, 72 h
[5] = Selectivity index, ratio of CC50 for human HeLa cells to IC50 for HRV 1B infected in human HeLa cells; assay type: functional
[6] = test system: rhinovirus A1B; test: Antiviral activity against HRV 1B infected in human HeLa cells assessed as log reduction in infectivity at 43 uM after 10 hrs by plaque assay at pH 5.0 relative to control; assay type: functional, Human rhinovirus 1B
[7] = test system: rhinovirus B14; test: Antiviral activity against HRV 14 infected in human HeLa cells assessed as inhibition of viral yield at 58 uM treated during 10 hrs multiplication period by plaque assay relative to control; assay type: functional; conditions: Rhinovirus B
[8] = test system: rhinovirus A1B; test: Antiviral activity against HRV 1B infected in human HeLa cells assessed as inhibition of viral yield compound treated at 43 uM during 1 hr at 4 degC followed by compound washout by plaque assay; assay type: functional, Human rhinovirus 1B; conditions: Rhinovirus A
[9] = test system: rhinovirus B14; test: Antiviral activity against HRV 14 infected in human HeLa cells assessed as maximal reduction of viral yield at 58 uM treated 6 hrs post adsorption period measured after 10 hrs by plaque assay; assay type: functional, organism-based
[10] = test system: rhinovirus A1B; test: Antiviral activity against HRV 1B infected in human HeLa cells assessed as half-maximal reduction of viral yield at 43 uM treated 45 mins post adsorption period measured after 10 hrs by plaque assay; assay type: functional, organism-based; conditions: Human rhinovirus 1B
[11] = test system: rhinovirus A1B; test: Antiviral activity against HRV 1B infected in human HeLa cells assessed as inhibition of viral yield compound treated at 43 uM for 1 hr prior infection followed by compound wash-out by plaque assay; assay type: functional, Human rhinovirus 1B; conditions: Rhinovirus A
[12] = test system: rhinovirus B14; test: Antiviral activity against HRV 14 infected in human HeLa cells assessed as log reduction in infectivity at 58 uM after 10 hrs by plaque assay at 56 degC relative to control; assay type: functional
[13] = test system: rhinovirus A1B; test: Antiviral activity against HRV 1B infected in human HeLa cells assessed as inhibition of viral yield compound treated at 43 uM prior to 1 hr incubated at 4 degC followed by 10 hrs at 33 degC infection period by plaque assay; assay type: functional, Human rhinovirus 1B
[14] = test system: rhinovirus B14; test: Antiviral activity against HRV 14 infected in human HeLa cells assessed as log reduction in infectivity at 58 uM after 10 hrs by plaque assay at pH 5.0 relative to control; assay type: functional
[15] = test system: rhinovirus A1B; test: Antiviral activity against HRV 1B infected in human HeLa cells assessed as maximal reduction of viral yield at 43 uM treated 4 hrs post adsorption period measured after 10 hrs by plaque assay; assay type: functional, organism-based; conditions: Human rhinovirus 1B
[16] = test system: rhinovirus A1B; test: Antiviral activity against HRV 1B infected in human HeLa cells assessed as inhibition of viral yield at 43 uM treated during 10 hrs multiplication period by plaque assay relative to control; assay type: functional, Human rhinovirus 1B; conditions: Rhinovirus A
[17] = test system: rhinovirus A1B; test: Antiviral activity against HRV 1B infected in human HeLa cells assessed as log reduction in infectivity at 43 uM after 10 hrs by plaque assay at 56 degC relative to control; assay type: functional, Human rhinovirus 1B
[18] = test system: rhinovirus B14; test: Antiviral activity against HRV 14 infected in human HeLa cells assessed as inhibition of viral yield at 58 uM treated at 1 hr after virus adsorption period measured after 10 hrs by plaque assay relative to control; assay type: functional; conditions: Rhinovirus B
[19] = test system: rhinovirus B14; test: Antiviral activity against HRV 14 infected in human HeLa cells assessed as inhibition of viral yield compound treated at 58 uM for 1 hr prior infection followed by compound wash-out by plaque assay; assay type: functional; conditions: Rhinovirus B
[20] = test system: rhinovirus B14; test: Antiviral activity against HRV 14 infected in human HeLa cells assessed as inhibition of viral yield compound treated at 58 uM prior to 1 hr incubated at 4 degC followed by 10 hrs at 33 degC infection period by plaque assay; assay type: functional
[21] = test system: rhinovirus A1B; test: Antiviral activity against HRV 1B infected in human HeLa cells assessed as inhibition of viral yield at 43 uM treated at 1 hr after virus adsorption period measured after 10 hrs by plaque assay relative to control; assay type: functional, Human rhinovirus 1B; conditions: Rhinovirus A
[22] = test system: rhinovirus A1B; test: Antiviral activity against HRV 1B infected in human HeLa cells assessed as reduction of viral yield at 43 uM treated 2 hrs post infection measured after 10 hrs by plaque assay; assay type: functional, organism-based; conditions: Human rhinovirus 1B
[23] = test system: rhinovirus B14; test: Antiviral activity against HRV 14 infected in human HeLa cells assessed as half-maximal reduction of viral yield at 58 uM treated 1 hr post adsorption period measured after 10 hrs by plaque assay; assay type: functional, organism-based
[24] = test system: rhinovirus B14; test: Antiviral activity against HRV 14 infected in human HeLa cells assessed as inhibition of viral yield compound treated at 58 uM during 1 hr at 4 degC followed by compound washout by plaque assay; assay type: functional; conditions: Rhinovirus B
[25] = test system: rhinovirus B14; test: Antiviral activity against HRV 14 infected in human HeLa cells assessed as reduction of viral yield at 58 uM treated 4 hrs post infection measured after 10 hrs by plaque assay; assay type: functional, organism-based
[26] = test system: rhinovirus A1B; test: Antiviral activity against HRV 1B infected in human HeLa cells assessed as reduction in plaque number at maximum non-cytotoxic concentration after 3 days by neutral red assay; assay type: functional, Human rhinovirus 1B; design: scale not given: the % may be the effect or the level left

Row | SMILES | IC50 [1] [µM] | CC50 at 72 h [2] [µM] | MNTC at 72 h [2] [µM] | Ratio CC50/IC50 [3] | IC50 [4] [µM] | Ratio CC50/IC50 [5] | further results
1 | C1=C(/C=C/c2cccnc2)COc2ccccc21 | 3.88 | 75 | 25 | 19.33 | 4.57 | 16.41 | –
2 | O=c1c(/C=C\c2cccnc2)coc2ccc(Cl)cc12 | 10.1 | 50 | 25 | 4.94 | 4.26 | 11.74 | –
3 | O=c1c(/C=C/c2ccccn2)coc2ccc(Cl)cc12 | 5.1 | > 50 | > 50 | >9.8 | 1.6 | >31.25 | –
4 | C1=C(/C=C/c2ccccn2)COc2ccccc21 | 2.93 | > 50 | > 50 | >17.06 | 1.7 | >29.41 | FC [6]: 1; inhibition at 58 µM [7]: 90%; inhibition at 43 µM [8]: 14%; Activity [9]: Active; Activity [10]: Active; inhibition at 43 µM [11]: 24%; FC [12]: 0.9; inhibition (INH) [13]: 90%; FC [14]: 0.9; Activity [15]: Active; inhibition at 43 µM [16]: 90%; FC [17]: 1.1; inhibition at 58 µM [18]: 90%; inhibition at 58 µM [19]: 1%; inhibition (INH) [20]: 90%; inhibition at 43 µM [21]: 90%; Activity [22]: inactive; Activity [23]: Active; inhibition at 58 µM [24]: 16%; Activity [25]: inactive
5 | C1=C(/C=C/c2ccncc2)COc2ccccc21 | 3.03 | 75 | 50 | 24.75 | 1.96 | 38.26 | –
6 | O=c1c(/C=C/c2ccccn2)coc2ccccc12 | 7.08 | > 200 | > 200 | >28.25 | 5.15 | >38.84 | –
7 | O=c1c(/C=C/c2ccncc2)coc2ccccc12 | 92.1 | > 100 | > 100 | >1.08 | > 100 | – | Activity [26]: 22%
8 | Clc1ccc2c(c1)C=C(/C=C/c1ccccn1)CO2 | 8.96 | > 50 | > 50 | >5.58 | 1.69 | >29.59 | –
9 | O=c1c(/C=C\c2cccnc2)coc2ccccc12 | 15.4 | > 200 | > 200 | >12.98 | 46.8 | >4.28 | –
10 | C1=C(/C=C\c2cccnc2)COc2ccccc21 | 9.37 | 37.5 | 25 | 4 | 0.98 | 38.26 | –
11 | O=c1c(/C=C/c2ccncc2)coc2ccc(Cl)cc12 | 15.6 | 150 | 100 | 9.6 | 19.1 | 7.87 | –
12 | C1=C(/C=C\c2ccncc2)COc2ccccc21 | 2.9 | 50 | 25 | 17.24 | 0.71 | 70.42 | –
13 | Clc1ccc2c(c1)C=C(/C=C/c1ccncc1)CO2 | 6.71 | 75 | 50 | 11.17 | 4.74 | 15.82 | –
14 | Clc1ccc2c(c1)C=C(/C=C/c1cccnc1)CO2 | 4.27 | 37.5 | 25 | 8.78 | 4.34 | 8.64 | –
